Laboratory results published in ChEMBL document CHEMBL4725289, “Structure-activity relationship studies for the development of inhibitors of murine adipose triglyceride lipase (ATGL)” (Bioorg Med Chem, 2020).
The source made the active and inactive calls. The rule behind the calls is not given here.

Assays:
[1] = target: T1, Patatin-like phospholipase domain-containing protein 2 (Mus musculus, UniProt Q8BJ56); test: Inhibition of murine ATGL expressed in COS-7 cells; assay type: cell-based
T1 sequence (Q8BJ56 whole entry): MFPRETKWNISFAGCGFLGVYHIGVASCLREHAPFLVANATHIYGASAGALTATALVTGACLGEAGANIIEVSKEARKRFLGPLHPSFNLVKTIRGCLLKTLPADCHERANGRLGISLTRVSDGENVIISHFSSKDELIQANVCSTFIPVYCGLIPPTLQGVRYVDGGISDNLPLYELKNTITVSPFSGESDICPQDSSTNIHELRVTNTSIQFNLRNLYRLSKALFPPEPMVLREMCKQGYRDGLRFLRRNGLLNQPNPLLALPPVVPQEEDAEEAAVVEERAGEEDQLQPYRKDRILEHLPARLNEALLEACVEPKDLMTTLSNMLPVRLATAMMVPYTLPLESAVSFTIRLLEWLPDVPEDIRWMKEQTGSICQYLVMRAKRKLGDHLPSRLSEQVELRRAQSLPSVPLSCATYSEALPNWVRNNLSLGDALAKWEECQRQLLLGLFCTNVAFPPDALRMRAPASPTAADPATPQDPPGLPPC

[2] = target: T2, Patatin-like phospholipase domain-containing protein 2 (Mus musculus) (UniProt Q8BJ56); test: Inhibition of murine ATGL expressed in COS-7 cells at 200 uM relative to control; assay type: cell-based
T2 sequence (whole entry): T1 sequence (Q8BJ56 whole entry)

[3] = target: T2, Patatin-like phospholipase domain-containing protein 2 (Mus musculus); test: Inhibition of recombinant murine ATGL expressed in Escherichia coli XL-1 lysates at 200 uM relative to control; assay type: subcellular
[4] = target: T1, Patatin-like phospholipase domain-containing protein 2; test: Inhibition of recombinant murine ATGL expressed in Escherichia coli XL-1 lysates; assay type: subcellular
[5] = target: T2, Patatin-like phospholipase domain-containing protein 2 (Mus musculus); test: Inhibition of murine ATGL at 200 uM relative to control
[6] = target: T1, Patatin-like phospholipase domain-containing protein 2; test: Inhibition of murine ATGL
[7] = In vivo inhibition of ATGL in 12 hrs fasted mouse assessed as reduction in circulating glycerol level at 200 uM administered via oral gavage measured after 8 hrs; assay type: functional
[8] = tested on: Mus musculus; test: In vivo inhibition of ATGL in 12 hrs fasted mouse assessed as reduction in circulating TG level at 200 uM administered via oral gavage in presence of poloxamer measured after 8 hrs; assay type: functional, organism-based
[9] = In vivo inhibition of ATGL in 12 hrs fasted mouse assessed as reduction in circulating triacylglycerol level at 200 uM administered via oral gavage measured after 8 hrs; assay type: functional
[10] = In vivo inhibition of ATGL in ad libitum fed mouse assessed as reduction in circulating fatty acid level at 200 uM administered via oral gavage measured after 8 hrs; assay type: functional
[11] = In vivo inhibition of ATGL in ad libitum fed mouse assessed as reduction in circulating glycerol level at 200 uM administered via oral gavage measured after 8 hrs; assay type: functional
[12] = In vivo inhibition of ATGL in 12 hrs fasted mouse assessed as reduction in circulating fatty acid level at 200 uM administered via oral gavage measured after 8 hrs; assay type: functional

SMILES	IC50 [1]	inhibition [2]	also measured
CCOc1ccc(-c2cccc(C(=O)OCCOCCOC)c2)cc1	> 200 µM	43%	
CCOC(=O)C1CCCC(c2ccc(OCC)cc2)N1 (stereo not given)	> 200 µM	48%	
CCOC(=O)c1cccc(-c2ccc(CN3CCN(C)CC3)cc2)c1	> 200 µM	26%	inhibition [3]: 32%; IC50 [4]: > 200 µM
CCOC(=O)c1ccc(-c2ccc(OCC)cc2)[nH]1	> 200 µM	44%	
CCOC(=O)c1cccc(-c2ccc([N+](=O)[O-])cc2)c1	95 µM	63%	
CCOc1ccc(-c2cccc(S(=O)(=O)NC)c2)cc1	200 µM	47%	
CCOc1ccc(-c2ccccc2)cc1	> 200 µM	35%	
CCOC(=O)c1cn(-c2ccc(OCC)cc2)nn1			inhibition [3]: 43%; IC50 [4]: > 200 µM
CCOc1ccc(-c2cccc(C(=O)NC)c2)cc1	> 200 µM	40%	
CCOC(=O)c1cccc(-c2ccc(CN3CCCC3)cc2)c1	> 200 µM	33%	
CCOc1ccc(-c2cccc(S(=O)(=O)N(C)C)c2)cc1	110 µM	63%	
CCOC(=O)c1cccc(-c2ccc(C)cc2)c1	140 µM	63%	
CCOC(=O)c1cccc(-c2ccc3[nH]ccc3c2)c1	60 µM	80%	
CN(C)c1ccc(-c2cccc(NC(=O)Oc3ccccc3)c2)cc1	73 µM	75%	
CN(C)c1ccc(-c2cccc(NC(=O)OCc3ccccc3)c2)cc1	> 200 µM	50%	
CC(C)COC(=O)Nc1cccc(-c2ccc(N(C)C)cc2)c1	22 µM	90%	
CCOC(=O)c1cccc(-c2ccc(CN(C)C)cc2)c1	150 µM	67%	
CCOC(=O)c1cccc(-c2ccncc2)c1	> 200 µM	40%	
CCOC(=O)c1cccc(-c2ccc3c(c2)CCN3)c1	120 µM	66%	
CCOc1ccc(-c2cccc(NC(C)=O)c2)cc1	200 µM	52%	
CCOC(=O)c1ccc(-c2ccc(OCC)cc2)o1	50 µM	93%	
CCOC(=O)c1cccc(-c2ccc(CN(C)C)o2)c1	190 µM	53%	
CC(C)OC(=O)Nc1cccc(-c2ccc(N(C)C)cc2)c1	82 µM	69%	
CCOC(=O)c1ccn(-c2ccc(OCC)cc2)n1			inhibition [5]: 89%
CCOC(=O)c1ccnc(-c2ccc(OCC)cc2)c1	80 µM	87%	

SMILES	IC50 [1]	inhibition [2]	also measured
CCOc1ccc(-c2cccc(N)c2)cc1	100 µM	65%	
CCOc1ccc(-c2cccc(C(=O)OCCOC)c2)cc1	70 µM	89%	
CCOC(=O)Nc1cccc(-c2ccc(N(C)C)cc2)c1	3 µM	93%	
CCOC(=O)c1cccc(-c2ccc(C(C)N(C)C)cc2)c1 (stereo not given)	200 µM	50%	inhibition [3]: 9%; IC50 [4]: 200 µM
CCOC(=O)c1cccc(-c2ccc(C(=O)CN(C)C)cc2)c1	200 µM	20%	inhibition [3]: 4%; IC50 [4]: 200 µM
CN(C)c1ccc(-c2cccc([N+](=O)[O-])c2)cc1	> 200 µM	21%	
CCOC(=O)c1cccc(-c2ccc(OCC)nc2)c1	130 µM	68%	
CCOc1ccc(-c2cccc([N+](=O)[O-])c2)cc1	> 200 µM	35%	
CCOC(=O)N(C)c1cccc(-c2ccc(N(C)C)cc2)c1	> 200 µM	20%	
CCOC(=O)c1cccc(-c2ccc(CN3CCN(S(C)(=O)=O)CC3)cc2)c1	100 µM	68%	inhibition [3]: 68%; IC50 [4]: 100 µM
CCOc1ccc(-c2cccc(NC(=O)N(C)C)c2)cc1	70 µM	68%	inhibition [3]: 83%; IC50 [4]: 9 µM
CCOC(=O)c1cccc(-c2ccc(Br)cc2)c1			inhibition [3]: 34%; IC50 [4]: > 200 µM
CCNS(=O)(=O)c1cccc(-c2ccc(OCC)cc2)c1	200 µM	46%	
COC(=O)Nc1cccc(-c2ccc(N(C)C)cc2)c1	5 µM	95%	
CN(C)c1ccc(-c2cccc(NC(=O)C(C)(C)C)c2)cc1	> 200 µM	25%	
CCOC(=O)c1cccc(-c2ccc(CN3CCCCC3)cc2)c1	75 µM	68%	
CCOC(=O)c1cccc(-c2ccc(CN3CCN(S(C)(=O)=O)CC3)o2)c1	100 µM	66%	
CCCCOC(=O)c1nn(-c2ccc(OCC)cc2)cc1O			inhibition [5]: 74%; IC50 [6]: 100 µM
CCOC(=O)c1cccc(-c2ccc(O)cc2)c1	100 µM	77%	
CCOC(=O)c1cccc(-c2ccc(CN3CCN(C)CC3)o2)c1	120 µM	67%	
CCOC(=O)c1cccc(-c2ccc(C(C)=O)cc2)c1	200 µM	36%	inhibition [3]: 17%; IC50 [4]: 200 µM
CCCCOC(=O)c1cccc(-c2ccc(OCC)cc2)c1	100 µM	61%	
CN(C)c1ccc(-c2cccc(N)c2)cc1	100 µM	70%	
CCOC(=O)c1cccc(-c2ccc(OCC)cc2)n1	60 µM	79%	
CCOC(=O)c1ccc(-c2ccc(OCC)cc2)s1	70 µM	81%	

SMILES	IC50 [1]	inhibition [2]	also measured
CCOC(=O)c1cccc(-c2ccccc2)c1	200 µM	52%	
CCOc1ccc(-c2cccc(C(=O)Oc3ccc([N+](=O)[O-])cc3)c2)cc1	150 µM	56%	
CCOC(=O)c1cccc(-c2ccc(OCC)c(N)c2)c1	140 µM	59%	
CCOC(=O)c1cncc(-c2ccc(OCC)cc2)c1	130 µM	70%	
CCOc1ccc(-n2cc(O)c(C(=O)O)n2)cc1			inhibition [5]: 15%; IC50 [6]: > 200 µM
CCOC(=O)c1cc(-c2ccc(OCC)cc2)ccn1	105 µM	72%	
CCOC(=O)c1cccc(-c2ccc3c(ccn3C)c2)c1	75 µM	84%	
CCOC(=O)c1nn(-c2ccc(OCC)cc2)cc1OC			inhibition [5]: 63%; IC50 [6]: 90 µM
CCOC(=O)c1cccc(-c2cccs2)c1	90 µM	55%	
CCOC(=O)c1cccc(-c2ccsc2)c1	75 µM	67%	
CCOC(=O)c1cccc(-c2ccc(C(C)N3CCN(C)CC3)cc2)c1 (stereo not given)	90 µM	69%	inhibition [3]: 30%; IC50 [4]: 200 µM
CCOC(=O)c1cccc(-c2ccc(OCC)c([N+](=O)[O-])c2)c1	200 µM	44%	
CCOC(=O)c1nn(-c2ccc(OCC)cc2)cc1O			inhibition [5]: 67%; IC50 [6]: 120 µM
CCCCCCOC(=O)c1cccc(-c2ccc(OCC)cc2)c1	> 200 µM	48%	
CCOc1ccc(-c2cccc(C(=O)OCC(F)(F)F)c2)cc1	120 µM	71%	
CCNC(=O)c1cccc(-c2ccc(OCC)cc2)c1	90 µM	62%	
CCOC(=O)c1cccc(-c2ccc(OC)cc2)c1	80 µM	77%	
CN(C)C(=O)Nc1cccc(-c2ccc(N(C)C)cc2)c1	< 5 µM	98%	inhibition in vivo at 200 µM [7]: 26%; inhibition [3]: 99%; inhibition [8]: Active; inhibition in vivo at 200 µM [9]: 37%; inhibition in vivo at 200 µM [10]: 27%; inhibition in vivo at 200 µM [11]: 23%; inhibition in vivo at 200 µM [12]: 27%
CCOc1ccc(-c2cccc(C(=O)N3CCCC3)c2)cc1	160 µM	53%	
CCOc1ccc(-c2cccc(C(=O)O)c2)cc1	> 200 µM	23%	
CN(C)C(=O)N(C)c1cccc(-c2ccc(N(C)C)cc2)c1	70 µM	74%	
CN(C)c1ccc(-c2cccc(NC(=O)N3CCOCC3)c2)cc1	> 200 µM	31%	
CCOc1ccc(-c2cccc(C)c2)cc1	70 µM	54%	
CCOC(=O)c1cccc(-c2ccc(OCC)cc2)c1	50 µM	87%	
CCOc1ccc(-n2cc(O)c(C(=O)OC)n2)cc1			inhibition [5]: 64%; IC50 [6]: 130 µM
